Test results: patent EP0550016A1, “Novel quinolone carboxylic acid derivatives and processes for preparing same” (KOREA RESEARCH INSTITUTE OF CHEMICAL TECHNOLOGY, priority 1991, dated 1993)
Read-outs that look alike come from different tables or passages of the source.

Experiments:
[1] = test system: Staphylococcus aureus 208 E; assay: In vitro anti-bacterial activity test (MIC, two-fold dilution method), Table 2 strains; assay type: cell-based
[2] = test system: Staphylococcus aureus 503; assay: In vitro anti-bacterial activity test (MIC, two-fold dilution method) against the standard strains; assay type: cell-based
[3] = test system: Staphylococcus aureus 121 E; assay: In vitro anti-bacterial activity test (MIC, two-fold dilution method), Table 2 strains; assay type: cell-based
[4] = test system: Staphylococcus aureus 692 E; assay: as above; assay type: cell-based; settings: Table 2 strain 6: Staphylococcus aureus 692 E
[5] = test system: Staphylococcus aureus 725 E; assay: as above; assay type: cell-based
[6] = test system: Klebsiella aerogenes 1522 E; assay: In vitro anti-bacterial activity test (MIC, two-fold dilution method) against the standard strains; assay type: cell-based; settings: Table 1 strain 18: Klebsiella aerogenes 1522 E
[7] = test system: Pseudomonas aeruginosa 1771 M; assay: as above; assay type: cell-based; settings: Table 1 strain 15: Pseudomonas aeruginosa 1771 M
[8] = test system: Staphylococcus aureus 706 E; assay: In vitro anti-bacterial activity test (MIC, two-fold dilution method), Table 2 strains; assay type: cell-based
[9] = test system: Staphylococcus aureus 694 E; assay: as above; assay type: cell-based
[10] = test system: Staphylococcus aureus 708 E; assay: as above; assay type: cell-based; settings: Table 2 strain 16: Staphylococcus aureus 708 E
[11] = test system: Staphylococcus aureus 690 E; assay: as above; assay type: cell-based
[12] = test system: Staphylococcus aureus 705 E; assay: as above; assay type: cell-based
[13] = test system: Staphylococcus aureus 714 E; assay: as above; assay type: cell-based
Escherichia coli OTEM = assay: In vitro anti-bacterial activity test (MIC, two-fold dilution method) against the standard strains; assay type: cell-based; settings: Table 1 strain 10: Escherichia coli OTEM
[14] = test system: Staphylococcus aureus SG 511; assay: as above; assay type: cell-based; settings: SG511; Table 1 strain 4: Staphylococcus aureus SG 511
Salmonella typhimurium = assay: as above; assay type: cell-based; settings: Salmonella enterica; Table 1 strain 16: Salmonella typhimurium
P. mirabilis = assay: Preventive effect against the systemic infection; assay type: in vivo; settings: Proteus mirabilis, 168 h, NMRI mice, survival on day 7, read-out: ED₅₀
Method: (§1) 10 fold of the pathogen which leads to 100% lethality were injected intraperitoneally to male and female NMRI mice weighing 18 to 20g. Immediately and after 4 hours, the dose of test compounds which was determined by two-fold serial dilution method was administered orally or subcutaneously; and on day 7, the effectiveness was evaluated in terms of ED₅₀ calculated from the number of survived mice by the probit analysis.

S. aureus 17740 = assay: Preventive effect against the systemic infection; assay type: in vivo; settings: Staphylococcus aureus, 168 h, NMRI mice, survival on day 7, read-out: ED₅₀
Method: as §1

[15] = test system: Pseudomonas aeruginosa 9027; assay: In vitro anti-bacterial activity test (MIC, two-fold dilution method) against the standard strains; assay type: cell-based; settings: Table 1 strain 12: Pseudomonas aeruginosa 9027
Escherichia coli DC 0 [16] = assay: as above; assay type: cell-based; settings: DC0; Table 1 strain 7: Escherichia coli DC 0
[17] = test system: Staphylococcus aureus 697 E; assay: In vitro anti-bacterial activity test (MIC, two-fold dilution method), Table 2 strains; assay type: cell-based; settings: Table 2 strain 10: Staphylococcus aureus 697 E
[18] = test system: Staphylococcus aureus 711 E; assay: as above; assay type: cell-based
[19] = test system: Staphylococcus aureus 695 E; assay: as above; assay type: cell-based
[20] = test system: Pseudomonas aeruginosa 1592 E; assay: In vitro anti-bacterial activity test (MIC, two-fold dilution method) against the standard strains; assay type: cell-based; settings: Table 1 strain 13: Pseudomonas aeruginosa 1592 E
[21] = test system: Staphylococcus aureus 693 E; assay: In vitro anti-bacterial activity test (MIC, two-fold dilution method), Table 2 strains; assay type: cell-based
[22] = test system: Staphylococcus aureus 256 E; assay: as above; assay type: cell-based; settings: Table 2 strain 4: Staphylococcus aureus 256 E
Escherichia coli 1507 E = assay: In vitro anti-bacterial activity test (MIC, two-fold dilution method) against the standard strains; assay type: cell-based; settings: Table 1 strain 11: Escherichia coli 1507 E
Escherichia coli DC 2 = assay: as above; assay type: cell-based; settings: DC2; Table 1 strain 9: Escherichia coli DC 2; read-out: MIC
[23] = test system: Klebsiella aerogenes 1082 E; assay: as above; assay type: cell-based; settings: Table 1 strain 17: Klebsiella aerogenes 1082 E
[24] = test system: Staphylococcus aureus 707 E; assay: In vitro anti-bacterial activity test (MIC, two-fold dilution method), Table 2 strains; assay type: cell-based
[25] = test system: Staphylococcus aureus 703 E; assay: as above; assay type: cell-based
Escherichia coli DC 0 [26] = assay: In vitro anti-bacterial activity test (MIC, two-fold dilution method) against the standard strains; assay type: cell-based; settings: DC0; Table 1 strain 8: Escherichia coli DC 0
[27] = test system: Enterobacter cloacae P 99; assay: as above; assay type: cell-based; settings: P99; Table 1 strain 19: Enterobacter cloacae P 99
[28] = test system: Staphylococcus aureus 701 E; assay: In vitro anti-bacterial activity test (MIC, two-fold dilution method), Table 2 strains; assay type: cell-based
[29] = test system: Streptococcus pyogenes 308 A; assay: In vitro anti-bacterial activity test (MIC, two-fold dilution method) against the standard strains; assay type: cell-based; settings: Table 1 strain 1: Streptococcus pyogenes 308 A
[30] = test system: Staphylococcus aureus 88 E; assay: In vitro anti-bacterial activity test (MIC, two-fold dilution method), Table 2 strains; assay type: cell-based; settings: Table 2 strain 1: Staphylococcus aureus 88 E
[31] = test system: Enterobacter cloacae 1321 E; assay: In vitro anti-bacterial activity test (MIC, two-fold dilution method) against the standard strains; assay type: cell-based; settings: Table 1 strain 20: Enterobacter cloacae 1321 E
[32] = test system: Streptococcus pyogenes 77 A; assay: as above; assay type: cell-based
[33] = test system: Pseudomonas aeruginosa 1771; assay: as above; assay type: cell-based; settings: Table 1 strain 14: Pseudomonas aeruginosa 1771
[34] = test system: Streptococcus faecium MD 8b; assay: as above; assay type: cell-based; settings: Enterococcus faecium, MD8B
[35] = test system: Staphylococcus aureus 285; assay: as above; assay type: cell-based

CC1COc2c(N3CCN(C)CC3)c(F)cc3c(=O)c(C(=O)O)cn1c23 (stereo not drawn) [Ofloxacin, ofloxacin, reference compound]
> 200 mg/kg: ED50 (S. aureus 17740; Oral Administration)
2.21 mg/kg: ED50 (P. mirabilis; Oral Administration)
0.195 mg/L: MIC [10] | MIC [14] | MIC (Escherichia coli DC 2)
0.025 mg/L: MIC (Salmonella typhimurium) | MIC [27]
0.013 mg/L: MIC (Escherichia coli DC 0 [16]) | MIC [31]
< 0.002 mg/L: MIC [23]
0.781 mg/L: MIC ([1]; Table 2 strain 3: Staphylococcus aureus 208 E, read-out: MIC) | MIC ([3]; Table 2 strain 2: Staphylococcus aureus 121 E, read-out: MIC) | MIC ([8]; Table 2 strain 14: Staphylococcus aureus 706 E, read-out: MIC) | MIC ([9]; Table 2 strain 8: Staphylococcus aureus 694 E, read-out: MIC) | MIC ([12]; Table 2 strain 13: Staphylococcus aureus 705 E, read-out: MIC) | MIC [22] | MIC ([24]; Table 2 strain 15: Staphylococcus aureus 707 E, read-out: MIC) | MIC ([25]; Table 2 strain 12: Staphylococcus aureus 703 E, read-out: MIC) | MIC ([28]; Table 2 strain 11: Staphylococcus aureus 701 E, read-out: MIC) | MIC [30] | MIC ([34]; Table 1 strain 3: Streptococcus faecium MD 8b, read-out: MIC)
200 mg/kg: ED50 (S. aureus 17740; sc, Subcutaneous Injection)
3.12 mg/L: MIC [29]
0.391 mg/L: MIC ([2]; Table 1 strain 6: Staphylococcus aureus 503, read-out: MIC) | MIC [4] | MIC ([5]; Table 2 strain 19: Staphylococcus aureus 725 E, read-out: MIC) | MIC [7] | MIC ([11]; Table 2 strain 5: Staphylococcus aureus 690 E, read-out: MIC) | MIC ([13]; Table 2 strain 18: Staphylococcus aureus 714 E, read-out: MIC) | MIC [17] | MIC ([18]; Table 2 strain 17: Staphylococcus aureus 711 E, read-out: MIC) | MIC ([19]; Table 2 strain 9: Staphylococcus aureus 695 E, read-out: MIC) | MIC ([21]; Table 2 strain 7: Staphylococcus aureus 693 E, read-out: MIC) | MIC (Escherichia coli DC 0 [26]) | MIC ([35]; Table 1 strain 5: Staphylococcus aureus 285, read-out: MIC)
0.049 mg/L: MIC [6] | MIC (Escherichia coli OTEM) | MIC (Escherichia coli 1507 E)
0.33 mg/kg: ED50 (P. mirabilis; sc, Subcutaneous Injection)
1.56 mg/L: MIC [15] | MIC [20] | MIC ([32]; Table 1 strain 2: Streptococcus pyogenes 77 A, read-out: MIC) | MIC [33]

O=C(O)c1cn(C2CC2)c2cc(N3CCNCC3)c(F)cc2c1=O [Ciprofloxacin, ciprofloxacin, reference compound]
0.391 mg/L: MIC [4] | MIC [15] | MIC [17] | MIC [20] | MIC (Escherichia coli DC 0 [26]) | MIC [33]
1.56 mg/L: MIC [22] | MIC [30]
0.098 mg/L: MIC [7]
0.002 mg/L: MIC (Escherichia coli DC 0 [16])
0.007 mg/L: MIC (Escherichia coli OTEM) | MIC (Escherichia coli 1507 E) | MIC [23]
3.12 mg/L: MIC [29]
0.195 mg/L: MIC [10] | MIC [14] | MIC (Escherichia coli DC 2)
0.16 mg/kg: ED50 (P. mirabilis; sc, Subcutaneous Injection)
0.82 mg/kg: ED50 (P. mirabilis; Oral Administration)
> 200 mg/kg: ED50 (S. aureus 17740; Oral Administration)
0.781 mg/L: MIC ([1]; Staphylococcus aureus, 208E) | MIC ([2]; Staphylococcus aureus, 503) | MIC ([3]; Staphylococcus aureus, 121E) | MIC ([5]; Staphylococcus aureus, 725E) | MIC ([8]; Staphylococcus aureus, 706E) | MIC ([9]; Staphylococcus aureus, 694E) | MIC ([11]; Staphylococcus aureus, 690E) | MIC ([12]; Staphylococcus aureus, 705E) | MIC ([13]; Staphylococcus aureus, 714E) | MIC ([18]; Staphylococcus aureus, 711E) | MIC ([19]; Staphylococcus aureus, 695E) | MIC ([21]; Staphylococcus aureus, 693E) | MIC ([24]; Staphylococcus aureus, 707E) | MIC ([25]; Staphylococcus aureus, 703E) | MIC ([28]; Staphylococcus aureus, 701E) | MIC ([32]; Streptococcus pyogenes, 77A) | MIC [34] | MIC ([35]; Staphylococcus aureus, 285)
